Test results taken from patent US10662218B2, “Analogs of celastrol” (ERX Pharmaceuticals, Inc., priority 2015, dated 2020).
In brackets after ≈: the same amount, converted by molar mass. Several values for one entry are separate records, joined by “and”; a condition that tells them apart may be missing. Equal entries are not always repeated. Where two headings read alike, the source gives them in different places.

What was measured:
[1] = system: C57BL/6 Diet Induced Obese (DIO) mice; test: Oral (P.O.) administration study in DIO mice: in vivo activity, body weights; design: species or system mouse; conditions: for change in vivo at 2 mg/kg: Mus musculus, po, read-out: Body weight, %-Diff; for Individual Body Weight, PRED 11 / Individual Body Weight, PRED 12 / Individual Body Weight, PRED 13 / Individual Body Weight, PRED 14: individual male DIO mouse of the 2 mg/kg group; for Individual Body Weight, PRED 11: pre-dose phase day 11 (baseline); for Individual Body Weight, PRED 12: pre-dose phase day 12 (baseline); for Individual Body Weight, PRED 13: pre-dose phase day 13 (baseline); for Individual Body Weight, PRED 14: pre-dose phase day 14 (baseline); for Individual Body Weight, DSNG 1 / Individual Body Weight, DSNG 2: individual male DIO mouse; for Individual Body Weight, DSNG 1: dosing phase day 1; for Individual Body Weight, DSNG 2: dosing phase day 2
Excerpt: The purpose of this study was to assess test articles in the Diet Induced Obese (DIO) mouse.
Male C57BL/6 Diet Induced Obese (DIO) mice were received from Taconic. Animals were acclimated to housing conditions for at least 1 week prior to vehicle acclimation dosing. Animals were acclimated to oral gavage dosing with vehicle once daily for Days 11 through 14 of the predose phase.
At initiation of dosing, animals were 21 to 22 weeks old, and their body weights ranged from 29.8 to 40.1 g.
Dose formulations were administered by oral gavage once daily for 10 days at a dose volume of 2 mL/kg. Doses were based on the most recently recorded scheduled body weight.
Body weights were recorded daily on Days 11 through 14 of the predose phase. Body weights were collected for all animals daily during the dosing phase prior to dosing.
Descriptive statistics (n, mean, standard error of the mean, standard deviation) were completed. Additionally, one-way analysis of variance followed by Dunnett's post-hoc test were performed on body weight (cumulative body weight change), glucose (glucose percent change), and food consumption (cumulative food consumption). Area under the curve (for body weight, cumulative body weight change, daily body weight change, and food consumption) was computed for treatment groups. An appropriate comparison test, such as one-way analysis of variance and Dunnett's, was performed on the group means for the area under the curve computations. Any additional statistical analysis and interpretation of the results were the responsibility of the sponsor.

[2] = system: C57BL/6 Diet Induced Obese (DIO) mice; test: Oral (P.O.) administration study in DIO mice: animal fate (mortality) and clinical observations; conditions: 2 mg/kg, phase of fate Dosing, phase week 2, phase day 11
Method: Male C57BL/6 DIO mice were assigned to 12 groups, and doses of 2 mg/kg Celastrol (ERX1000-4), ERX1006, ERX1007, ERX1037, ERX1060, ERX1077, ERX1107, ERX1149, ERX1168, ERX1177, and Pristimerin were administered to Groups 2 through 12, respectively. Animals were dosed via oral gavage once daily for 10 days at a volume of 2 mL/kg. The vehicle control article was 1% methyl cellulose (400 cps) in citric acid and phosphate buffer.
Parameters assessed included mortality, clinical observations, body weights and food consumption and blood glucose evaluations.
All animals were anesthetized via carbon dioxide, sacrificed, and discarded without further evaluation on Day 11.

[3] = physchem; conditions: pH 7.4, aqueous buffer, kinetic from dmso stock
Method: • Test concentration: 100 μM (1% of DMSO) • Test systems: PBS (pH 7.4) • Incubation condition: shaken (1000 rpm) for 1 h at room temperature • Sample size: Duplicates (n=2) • Bioanalytical method: LC-MS/MS

CC(=O)OC1=C(C)C2=CC=C3[C@@](C)(CC[C@@]4(C)[C@@H]5C[C@](C)(C(=O)O)CC[C@]5(C)CC[C@]34C)C2=CC1=O [ERX1007]
Body weight %-Diff ([1]; 2 mg/kg oral gavage once daily, dosing phase Day 1): 1% | Body weight, Mean ([1]; 2 mg/kg oral gavage once daily, dosing phase Day 1, N 5): 34.5 g | Body weight %-Diff ([1]; 2 mg/kg oral gavage once daily, dosing phase Day 2): −1% | Body weight, Mean ([1]; 2 mg/kg oral gavage once daily, dosing phase Day 2, N 5): 34.1 g | Body weight %-Diff ([1]; 2 mg/kg oral gavage once daily, dosing phase Day 3): −2% | Body weight, Mean ([1]; 2 mg/kg oral gavage once daily, dosing phase Day 3, N 5): 33.3 g | Body weight %-Diff ([1]; 2 mg/kg oral gavage once daily, dosing phase Day 4): 0% | Body weight, Mean ([1]; 2 mg/kg oral gavage once daily, dosing phase Day 4, N 5): 33.3 g | Body weight %-Diff ([1]; 2 mg/kg oral gavage once daily, dosing phase Day 5): −2% | Body weight, Mean ([1]; 2 mg/kg oral gavage once daily, dosing phase Day 5, N 5): 33.1 g | Body weight %-Diff ([1]; 2 mg/kg oral gavage once daily, dosing phase Day 6): −3% | Body weight, Mean ([1]; 2 mg/kg oral gavage once daily, dosing phase Day 6, N 5): 32.4 g | Body weight, Mean ([1]; Day 7, DSNG phase, 2 mg/kg, male, N=5): 32.4 g | Body weight, Mean ([1]; Day 8, DSNG phase, 2 mg/kg, male, N=5): 32.7 g | Body weight, Mean ([1]; Day 9, DSNG phase, 2 mg/kg, male, N=5): 32.3 g | Body weight, Mean ([1]; Day 10, DSNG phase, 2 mg/kg, male, N=5): 32.1 g | Body weight, Mean ([1]; Day 11, DSNG phase, 2 mg/kg, male, N=5): 32.3 g | change in vivo at 2 mg/kg ([1]; 168 h, Day 7, DSNG phase, 2 mg/kg, male, difference of group mean): -3% | change in vivo at 2 mg/kg ([1]; 192 h, Day 8, DSNG phase, 2 mg/kg, male, difference of group mean): -3% | change in vivo at 2 mg/kg ([1]; 216 h, Day 9, DSNG phase, 2 mg/kg, male, difference of group mean): -3% | change in vivo at 2 mg/kg ([1]; 240 h, Day 10, DSNG phase, 2 mg/kg, male, difference of group mean): -4% | change in vivo at 2 mg/kg ([1]; 264 h, Day 11, DSNG phase, 2 mg/kg, male, difference of group mean): -5% | Individual Body Weight, PRED 11 [1]: 36.8 g and 39.8 g and 35.7 g and 32.5 g and 37.6 g | Individual Body Weight, PRED 12 [1]: 35.2 g and 38.9 g and 35.7 g and 31.7 g and 36.9 g | Individual Body Weight, PRED 13 [1]: 34.1 g and 38.7 g and 35.3 g and 32.3 g and 36.5 g | Individual Body Weight, PRED 14 [1]: 34.2 g and 38.6 g and 35.2 g and 32.7 g and 37.3 g | Individual Body Weight, DSNG 1 ([1]; 2 mg/kg, 2 mg/kg): 33.8 g and 36.3 g and 34.7 g and 31.4 g and 36.2 g | Individual Body Weight, DSNG 2 ([1]; 2 mg/kg, 2 mg/kg): 33.2 g and 36.4 g and 34.2 g and 30.3 g and 36.2 g | Individual Animal Fate: Fate Status ([2]; individual male animals): Scheduled Sacrifice | solubility ([3]; Solubility (μM)): 48.8 µM (≈ 24 µg/mL) | solubility ([3]; Solubility (μM) Mean): 48.8 µM (≈ 24 µg/mL)

COC(=O)[C@]1(C)CC[C@]2(C)CC[C@]3(C)C4=CC=C5C(=CC(=O)C(O)=C5C)[C@]4(C)CC[C@@]3(C)[C@@H]2C1 [Pristimerin, reference compound]
Body weight, Mean ([1]; DIO mice, male, 2 mg/kg, phase DSNG, Day 7): 33.5 g | Body weight, Mean ([1]; DIO mice, male, 2 mg/kg, phase DSNG, Day 8): 33.1 g | Body weight, Mean ([1]; DIO mice, male, 2 mg/kg, phase DSNG, Day 9): 32.9 g | Body weight, Mean ([1]; DIO mice, male, 2 mg/kg, phase DSNG, Day 10): 33.2 g | Body weight, Mean ([1]; DIO mice, male, 2 mg/kg, phase DSNG, Day 11): 33.9 g | Body weight, Mean ([1]; Day 1, DSNG phase, 2 mg/kg, male, N=5): 34.2 g | Body weight, Mean ([1]; Day 2, DSNG phase, 2 mg/kg, male, N=5): 34.0 g | Body weight, Mean ([1]; Day 3, DSNG phase, 2 mg/kg, male, N=5): 33.7 g | Body weight, Mean ([1]; Day 4, DSNG phase, 2 mg/kg, male, N=5): 33.3 g | Body weight, Mean ([1]; Day 5, DSNG phase, 2 mg/kg, male, N=5): 33.3 g | Body weight, Mean ([1]; Day 6, DSNG phase, 2 mg/kg, male, N=5): 33.4 g | change in vivo at 2 mg/kg ([1]; 24 h): 0% | change in vivo at 2 mg/kg ([1]; 48 h): -1% | change in vivo at 2 mg/kg ([1]; 72 h): -1% | change in vivo at 2 mg/kg ([1]; 96 h): 0% | change in vivo at 2 mg/kg ([1]; 120 h): -1% | change in vivo at 2 mg/kg ([1]; 144 h): 0% | change in vivo at 2 mg/kg ([1]; 168 h): 0% | change in vivo at 2 mg/kg ([1]; 192 h): -2% | change in vivo at 2 mg/kg ([1]; 216 h): -1% | change in vivo at 2 mg/kg ([1]; 240 h): -1% | change in vivo at 2 mg/kg ([1]; 264 h): -1% | Individual Body Weight, PRED 11 [1]: 42.4 g and 35.2 g and 31.7 g and 38.2 g and 33.9 g | Individual Body Weight, PRED 12 [1]: 41.2 g and 34.5 g and 31.0 g and 37.5 g and 32.5 g | Individual Body Weight, PRED 13 [1]: 41.3 g and 33.4 g and 31.4 g and 37.3 g and 32.9 g | Individual Body Weight, PRED 14 [1]: 41.9 g and 35.0 g and 31.6 g and 37.6 g and 33.1 g | Individual Body Weight, DSNG 1 ([1]; 2 mg/kg, 2 mg/kg): 40.0 g and 33.3 g and 29.8 g and 35.5 g and 32.3 g | Individual Body Weight, DSNG 2 ([1]; 2 mg/kg, 2 mg/kg): 39.4 g and 33.1 g and 30.2 g and 35.4 g and 32.1 g | Individual Animal Fate: Fate Status ([2]; individual male DIO mouse): Scheduled Sacrifice
